Structures can show the parent of a compound that is named as a salt.
Legend:
[1] = intravenous infusion; cited from earlier work
[2] = tested on: patients hospitalized for acute heart failure (AHF); settings: 1.0 μg/kg/min group; Carubelli et al.; cited from earlier work
[3] = tested on: patients hospitalized for acute heart failure (AHF); experiment: Self-reported dyspnoea by visual analogue scale (VAS); assay type: in vivo, human
Description: The primary efficacy endpoint was the change from baseline to 24 h after the start of the infusion in the E/e ratio assessed by tissue Doppler echocardiography. Secondary endpoints included the change from baseline to 24 h of other echocardiography parameters: LVEF, left ventricular end-systolic and end-diastolic volumes, stroke volume index, E, A, E/A ratio, and S′: changes in dyspnoea by visual analogue scale (VAS) and in NT-proBNP from baseline to 24 h: proportion of patients with hospital readmissions or emergency visits for cardiovascular reasons by day 30; proportion of patients with episodes of in-hospital worsening heart failure to day 4, and length of stay. In-hospital worsening heart failure was defined by the need to increase the dose or reinitiate intravenous therapy with diuretics and/or other inotropic agents to day 4. Safety endpoints were assessed throughout the study and included: incidence of adverse events (AEs): change in vital signs and in 12-lead electrocardiographic (ECG) parameters: incidence of clinically or haemodynamically significant episodes of supraventricular or ventricular arrhythmias detected by continuous ECG monitoring: standard laboratory parameters: renal function: cardiac troponin T (cTnT): incidence of cTnT elevations, and mortality at day 30. Elevations in cTnT were considered significant if they were >50% or >20% from baseline values, for patients with cTnT below or above the 99% upper reference limit at baseline, respectively.
The study design included a 24 h screening period, a 24 h study drug infusion phase (day 1), a post-treatment phase (days 2-4), and a follow-up visit at day 30 (FIG. 5). Patients could be enrolled at any time after admission. The use of oral medications was permitted during the study with the exception of digoxin. Intravenous diuretics were permitted during the treatment period at stable doses, unless changes were required due to clinically relevant variations of the patient's condition. If treatment with an inotrope was clinically necessary during the infusion period, the investigational product was discontinued. Echocardiography was performed according to international standards at screening, baseline (just before starting study drug infusion), 6, 24 h (just before infusion end), and 48 h after infusion start. Echocardiographic measurements at baseline, 6, 24, and 48 h were evaluated in a blinded fashion by a CoreLab located at the University and Civil Hospital of Brescia, Italy. E/e′ ratio was calculated as the ratio between the peak early diastolic mitral flow velocity (E wave) and the mean of the annular lateral (e′ lateral) and septal (e′ septal) velocities, according to standard guidelines.^20 Intraobserver and interobserver variability in E/e′ measurement was tested on the 15% of the recordings and is shown in FIG. 6. Self-reported dyspnoea was assessed using a 100 mm VAS, with zero representing the worst level of dyspnoea and […] the best breathing condition. Twenty-four hour ECG monitoring was performed using a three-lead device (Mortara industries, Milwaukee, WI, USA) during the day of screening, the infusion period, and the day after (the latter was optional). Analysis was conducted by a blinded CoreLab (ICS Maugeri, Italy). Serial measurements of NT-proBNP throughout the study were analyzed by a central laboratory (Elecsys® proBNP II, Roche®, Basel, Switzerland). Samples for cTnT were taken at baseline, 3, 6, 12, 24, 48, and 72 h and on day 30, and were analyzed by a core laboratory (Elecsys® high-sensitivity assay, Roche®, Basel, Switzerland). AEs were monitored throughout the duration of the study.
The study was designed as a mechanistic and safety study to assess the effects of a 24 h istaroxime infusion in patients hospitalized for AHF. […]

C[C@]12CCC(=NOCCN)C[C@@H]1C(=O)C[C@@H]1[C@@H]2CC[C@]2(C)C(=O)CC[C@@H]12 [Istaroxime, (E,Z)-3-((2-aminoethoxy)imino)androstane-6,17-dione hydrochloride]
half-time (washout after infusion termination) [1]: 60 min
Serious adverse events, percent [2]: 15%
Dyspnoea VAS score, mean change from baseline ([3]; 0.5 μg/Kg/min, 3 hours): 4.113
Dyspnoea VAS score, mean change from baseline ([3]; 0.5 μg/Kg/min, 6 hours): 6.582
Dyspnoea VAS score, mean change from baseline ([3]; 0.5 μg/Kg/min, 12 hours): 6.772
Dyspnoea VAS score, mean change from baseline ([3]; 0.5 μg/Kg/min, 24 hours): 9.276
Dyspnoea VAS score, mean change from baseline ([3]; 0.5 μg/Kg/min, 48 hours): 10.948
Dyspnoea VAS score, mean change from baseline ([3]; 1.0 μg/Kg/min, 3 hours): 4.212
Dyspnoea VAS score, mean change from baseline ([3]; 1.0 μg/Kg/min, 6 hours): 8.637
Dyspnoea VAS score, mean change from baseline ([3]; 1.0 μg/Kg/min, 12 hours): 9.076
Dyspnoea VAS score, mean change from baseline ([3]; 1.0 μg/Kg/min, 24 hours): 13.332
Dyspnoea VAS score, mean change from baseline ([3]; 1.0 μg/Kg/min, 48 hours): 10.075
